Where two headings read alike, the source gives them in different places. One block for each molecule: values may come before it.
Experiments:
[1] = molecular target: T1, N-Flo1p (Saccharomyces cerevisiae, UniProt P32768); assay: AFM force spectroscopy of glycosylated N-Flo1p self-binding; conditions: Tris solution with 20 mM EDTA and 100 mM mannose
T1 sequence (P32768 25-271 limits assumed): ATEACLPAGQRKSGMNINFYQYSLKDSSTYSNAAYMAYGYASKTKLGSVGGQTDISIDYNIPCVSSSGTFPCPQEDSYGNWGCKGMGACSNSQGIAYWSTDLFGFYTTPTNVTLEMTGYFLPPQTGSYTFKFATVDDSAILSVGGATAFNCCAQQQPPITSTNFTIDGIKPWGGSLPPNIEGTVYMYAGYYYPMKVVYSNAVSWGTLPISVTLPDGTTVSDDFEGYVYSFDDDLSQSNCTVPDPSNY

[2] = tested on: N-Flo5p; conditions: cited from earlier work
[3] = molecular target: T2, N-Flo1p (Saccharomyces cerevisiae, UniProt P32768); assay: Fluorescence titration of carbohydrates with nonglycosylated N-Flo1p; format: binding
T2 sequence (P32768 23-271): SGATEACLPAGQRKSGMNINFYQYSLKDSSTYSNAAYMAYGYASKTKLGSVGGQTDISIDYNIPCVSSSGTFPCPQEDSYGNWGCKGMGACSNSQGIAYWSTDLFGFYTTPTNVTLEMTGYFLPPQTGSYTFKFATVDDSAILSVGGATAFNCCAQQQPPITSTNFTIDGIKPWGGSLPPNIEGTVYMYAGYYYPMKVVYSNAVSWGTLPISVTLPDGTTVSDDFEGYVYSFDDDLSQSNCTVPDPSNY

[4] = molecular target: T3, N-Lg-Flo1p (Saccharomyces pastorianus, UniProt B3IUB3, P58Q); assay: Fluorescence titration of carbohydrates with N-Lg-Flo1p; format: binding; conditions: construct from the CBS1513 strain
T3 sequence (B3IUB3 23-213 P58Q): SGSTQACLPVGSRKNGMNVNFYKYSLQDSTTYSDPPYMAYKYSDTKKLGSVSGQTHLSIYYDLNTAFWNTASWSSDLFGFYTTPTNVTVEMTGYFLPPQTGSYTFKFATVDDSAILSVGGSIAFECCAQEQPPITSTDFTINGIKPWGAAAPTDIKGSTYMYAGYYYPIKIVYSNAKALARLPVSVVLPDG

[5] = molecular target: T3, N-Lg-Flo1p; conditions: cited from earlier work
[6] = molecular target: T1, N-Flo1p; assay: N-Flo1p self-binding by surface plasmon resonance; conditions: SPR, in the presence of Ca2+
[7] = read-out: Equilibrium dissociation constant (KD) N-Flo1p, fluorescence titration, nonglycosylated N-Flo1p, this work (footnote a)

Molecule: O=C(O)CN(CCN(CC(=O)O)CC(=O)O)CC(=O)O [EDTA]
Effect on unbinding events of N-Flo1p self-binding [1]: longer-distance events disappeared almost completely

Molecule: OC[C@H]1OC(O)[C@@H](O)[C@@H](O)[C@@H]1O (stereo partly drawn) [M (Man), D-mannose]
KD range for N-Lg-Flo1p, in words [4]: high micromolar range
Kd [3]: 8.7 ± 0.43 mM
Affinity / interaction with N-Flo1p, in words ([3]; fluorescence titration, listed as D-mannose): low-millimolar range
Affinity / interaction with N-Flo1p, in words ([3]; fluorescence titration, listed as mannose): millimolar range

Molecule: O=P(O)(O)OC1O[C@H](CO)[C@@H](O)[C@H](O)[C@@H]1O (some centres unmarked) [mannose-1-phosphate]
Affinity for N-Lg-Flo1p, in words [5]: micromolar-affinity

The next lines start with results.

Affinity / interaction with N-Flo1p, in words ([3]; fluorescence titration): very weakly
Molecule: OC[C@H]1OC(O)[C@H](O)[C@@H](O)[C@@H]1O (some centres unmarked) [Glc, glucose]
Binding to N-Flo5p, in words [2]: very weakly

Fold difference in binding between the mono- and disaccharides (N-Flo1p) ([3]; α-1,2-mannobiose versus D-mannose): 10 fold
Molecule: OC[C@H]1O[C@H](O[C@@H]2C(O)O[C@H](CO)[C@@H](O)[C@@H]2O)[C@@H](O)[C@@H](O)[C@@H]1O (stereo partly drawn) [Mα-1,2-M, α-1,2-mannobiose]

Kd [3, 7]: 3.3 ± 0.34 mM
Molecule: OC[C@H]1O[C@H](O[C@H]2[C@H](O)[C@@H](CO)OC(O)[C@H]2O)[C@@H](O)[C@@H](O)[C@@H]1O (stereo partly drawn) [Mα-1,3-M, α-1,3-linked mannobiose]
Binding to N-Flo5p, in words [2]: No binding

Kd [3, 7]: 6.9 ± 0.64 mM
Molecule: OC[C@H]1O[C@H](OC[C@H]2OC(O)[C@@H](O)[C@@H](O)[C@@H]2O)[C@@H](O)[C@@H](O)[C@@H]1O (stereo partly drawn) [Mα-1,6-M, α-1,6-linked mannobiose]
Binding to N-Flo5p, in words [2]: No binding

Binding of N-deglycosylated N-Flo1p to immobilized N-deglycosylated N-Flo1p [6]: almost no binding
B1: N-deglycosylated N-Flo1p: N-Flo1p after removal of the N-glycans with endo-β-N-acetylglucosaminidase H (protein)
chain: SGATEACLPAGQRKSGMNINFYQYSLKDSSTYSNAAYMAYGYASKTKLGSVGGQTDISIDYNIPCVSSSGTFPCPQEDSYGNWGCKGMGACSNSQGIAYWSTDLFGFYTTPTNVTLEMTGYFLPPQTGSYTFKFATVDDSAILSVGGATAFNCCAQQQPPITSTNFTIDGIKPWGGSLPPNIEGTVYMYAGYYYPMKVVYSNAVSWGTLPISVTLPDGTTVSDDFEGYVYSFDDDLSQSNCTVPDPSNY
modifications: N-glycans removed with EndoH (GlcNAc residues remain); O-glycans (5 or 6 mannoses) present

— paper PMC4453552 (mBio, 2015)
